Laboratory results taken from ChEMBL document CHEMBL1201862, “PubChem BioAssay data set” (2004).
Activity calls are given as the source filed them.

Experiments:
[1] = Luminescence Cell-Based Dose Response HTS to Identify Activators of Luciferase Translation or Activity in H4 […] Cells. [Related pubchem assays: 1829 (Project Summary), 1814 (Primary HTS)]; type: functional
[2] = Luminescence Cell-Based Dose Confirmation HTS to Identify Activators of 5'UTR Stem-Loop Driven Alpha-Synuclein mRNA Translation in H4 Neuroglioblastoma Cells. [Related pubchem assays: 1829 (Project Summary), 1814 (Primary HTS)]; type: functional
[3] = tested on: H4; assay: Luminescence Cell-Based Dose Response HTS to Identify Activators of 5'UTR Stem-Loop Driven Prion Protein mRNA Translation in H4 Neuroglioblastoma Cells. [Related pubchem assays: 1829 (Project Summary), 1814 (Primary HTS)]; type: functional; settings: Homo sapiens
[4] = biological target: T1, Heat shock factor protein 1 (Mus musculus, UniProt P38532); assay: inhibition of MG132-induced HSE-luciferase signal, confirmation, cell-based, NIH3T3, luminescence, dose retest (AID 2382); type: functional;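 also: NIH3T3 fibroblasts with HSF1-driven luciferase reporter stressed by proteasome inhibitor MG132; luminescence from HSF1-driven luciferase expression after 8 hours of MG132 stress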
T1 sequence (P38532 whole entry): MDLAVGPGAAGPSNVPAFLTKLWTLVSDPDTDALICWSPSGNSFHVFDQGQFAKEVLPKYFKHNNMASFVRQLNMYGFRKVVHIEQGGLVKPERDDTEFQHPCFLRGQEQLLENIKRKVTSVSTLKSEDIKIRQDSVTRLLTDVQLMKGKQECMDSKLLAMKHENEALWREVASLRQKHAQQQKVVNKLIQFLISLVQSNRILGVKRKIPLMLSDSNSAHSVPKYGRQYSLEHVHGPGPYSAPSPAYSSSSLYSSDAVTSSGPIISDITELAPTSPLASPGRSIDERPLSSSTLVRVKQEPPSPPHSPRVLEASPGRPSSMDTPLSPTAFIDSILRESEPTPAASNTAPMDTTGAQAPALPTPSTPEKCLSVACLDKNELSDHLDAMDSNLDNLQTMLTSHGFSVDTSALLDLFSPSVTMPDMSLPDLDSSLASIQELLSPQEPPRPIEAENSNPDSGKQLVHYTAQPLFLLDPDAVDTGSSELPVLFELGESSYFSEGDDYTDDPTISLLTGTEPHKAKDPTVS

[5] = biological target: T2, Corticotropin-releasing factor receptor 2/Corticotropin-releasing factor-binding protein (Homo sapiens, UniProt P24387+Q13324); assay: activators of CRF receptor 2 with binding protein – uHTS hits, confirmation (AID 602473); type: functional; settings: read-out: EC50_Mean
T2 sequence (Q13324 whole entry): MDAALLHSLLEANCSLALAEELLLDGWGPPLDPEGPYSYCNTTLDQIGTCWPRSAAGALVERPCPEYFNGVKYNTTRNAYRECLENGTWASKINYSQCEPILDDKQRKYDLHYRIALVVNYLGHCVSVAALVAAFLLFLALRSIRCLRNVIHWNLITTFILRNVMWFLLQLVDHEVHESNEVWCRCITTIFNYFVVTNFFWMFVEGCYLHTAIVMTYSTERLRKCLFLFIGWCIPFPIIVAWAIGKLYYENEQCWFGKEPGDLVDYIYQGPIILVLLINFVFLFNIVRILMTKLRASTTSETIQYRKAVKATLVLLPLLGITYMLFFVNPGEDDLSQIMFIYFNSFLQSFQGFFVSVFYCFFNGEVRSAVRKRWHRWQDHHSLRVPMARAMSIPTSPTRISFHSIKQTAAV
T2 sequence (P24387 whole entry): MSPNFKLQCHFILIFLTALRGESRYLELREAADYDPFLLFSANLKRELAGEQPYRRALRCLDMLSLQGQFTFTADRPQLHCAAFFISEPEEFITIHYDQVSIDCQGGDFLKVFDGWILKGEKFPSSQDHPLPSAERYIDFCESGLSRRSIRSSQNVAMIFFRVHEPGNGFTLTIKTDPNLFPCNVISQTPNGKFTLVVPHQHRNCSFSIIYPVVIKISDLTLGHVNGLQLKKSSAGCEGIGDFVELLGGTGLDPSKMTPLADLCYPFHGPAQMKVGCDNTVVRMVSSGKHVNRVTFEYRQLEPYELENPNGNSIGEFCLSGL

[6] = biological target: T2, Corticotropin-releasing factor receptor 2/Corticotropin-releasing factor-binding protein; assay: Dose Response confirmation of uHTS hits for small molecule antagonists of the CRF-binding protein and CRF-R2 receptor complex.; type: functional; settings: read-out: IC50_Mean
[7] = cytotoxicity toward NIH3T3 fibroblasts, dose response, counter-screen, cell-based, ATP luminescence, mouse fibroblasts (AID 2010); type: functional;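 also: cells exposed to compound for about 90 hours before reading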
[8] = inhibitors of intracellular T. cruzi replication, confirmation, NIH3T3 host cells, beta-gal luminescence (AID 2044); type: functional, cell-based;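 also: intracellular parasites grown in NIH/3T3 mouse fibroblasts as host cells; luminescent beta-galactosidase reporter signal from transgenic T. cruzi replicating inside host cells; inhibitors lower the luminescence signal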
[9] = tested on: Streptococcus sp. 'group A'; assay: growth inhibition of control SK(-) GAS strain, dose response, counter-screen for streptokinase expression inhibitor project, luminescence, kanamycin, BacTiterGlo, confirmation (AID 1900); type: functional, organism-based
[10] = biological target: T3, Streptokinase A (Streptococcus pyogenes serotype M1, UniProt P10520); assay: S. pyogenes streptokinase expression inhibitors, potency, dose response, plasminogen activation absorbance, OD405 (AID 1914); type: functional, Streptococcus pyogenes M1 GAS;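 also: secreted streptokinase activity via plasminogen activation per viability signal from cell pellet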
T3 sequence (P10520 whole entry): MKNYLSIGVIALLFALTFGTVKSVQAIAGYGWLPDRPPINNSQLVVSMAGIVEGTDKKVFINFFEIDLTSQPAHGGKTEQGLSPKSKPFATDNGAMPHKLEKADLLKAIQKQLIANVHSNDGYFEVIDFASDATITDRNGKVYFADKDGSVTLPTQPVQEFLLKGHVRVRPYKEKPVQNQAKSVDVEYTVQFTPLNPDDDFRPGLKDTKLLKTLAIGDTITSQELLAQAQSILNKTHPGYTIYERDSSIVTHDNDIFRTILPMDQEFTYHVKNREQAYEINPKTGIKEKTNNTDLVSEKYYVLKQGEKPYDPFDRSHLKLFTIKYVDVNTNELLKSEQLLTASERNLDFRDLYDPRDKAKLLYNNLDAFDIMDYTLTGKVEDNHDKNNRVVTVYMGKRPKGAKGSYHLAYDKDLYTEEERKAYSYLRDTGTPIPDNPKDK

[11] = tested on: Streptococcus; assay: Group A Streptococcus viability loss, dose response, counter-screen for streptokinase expression inhibitor project, luminescence, BacTiterGlo (AID 1915); type: functional, organism-based;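 also: potency for reduction of bacterial viability or growth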
[12] = biological target: Cytochrome P450 2C19 (Homo sapiens, UniProt P33261); assay: Cytochrome panel assay with activity outcomes. Panel member name: p450-cyp2c19 Compounds with AC50 equal or less than 10 uM are considered active; type: functional; settings: read-out: AC50
Sequence of Cytochrome P450 2C19 (P33261 whole entry): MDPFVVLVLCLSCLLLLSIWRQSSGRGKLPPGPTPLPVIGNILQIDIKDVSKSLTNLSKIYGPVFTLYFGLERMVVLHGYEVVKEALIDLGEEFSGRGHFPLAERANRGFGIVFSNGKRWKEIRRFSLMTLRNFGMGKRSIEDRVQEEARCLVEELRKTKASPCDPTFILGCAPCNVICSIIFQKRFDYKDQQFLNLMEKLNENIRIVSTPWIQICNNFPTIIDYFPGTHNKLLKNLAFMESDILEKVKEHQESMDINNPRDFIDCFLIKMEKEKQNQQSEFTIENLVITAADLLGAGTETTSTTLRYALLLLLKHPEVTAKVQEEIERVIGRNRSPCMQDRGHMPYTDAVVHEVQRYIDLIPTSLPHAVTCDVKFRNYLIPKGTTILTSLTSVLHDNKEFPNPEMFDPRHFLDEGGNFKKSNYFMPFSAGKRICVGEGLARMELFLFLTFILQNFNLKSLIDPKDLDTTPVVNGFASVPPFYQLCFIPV

[13] = biological target: T4, Rac GTPase-activating protein 1 (Homo sapiens, UniProt Q9H0H5); assay: MgcRacGAP GTPase-activating activity inhibitors, confirmation, biochemical, ADP Hunter fluorescence, primary and confirmatory (AID 624330); type: functional
T4 sequence (Q9H0H5 whole entry): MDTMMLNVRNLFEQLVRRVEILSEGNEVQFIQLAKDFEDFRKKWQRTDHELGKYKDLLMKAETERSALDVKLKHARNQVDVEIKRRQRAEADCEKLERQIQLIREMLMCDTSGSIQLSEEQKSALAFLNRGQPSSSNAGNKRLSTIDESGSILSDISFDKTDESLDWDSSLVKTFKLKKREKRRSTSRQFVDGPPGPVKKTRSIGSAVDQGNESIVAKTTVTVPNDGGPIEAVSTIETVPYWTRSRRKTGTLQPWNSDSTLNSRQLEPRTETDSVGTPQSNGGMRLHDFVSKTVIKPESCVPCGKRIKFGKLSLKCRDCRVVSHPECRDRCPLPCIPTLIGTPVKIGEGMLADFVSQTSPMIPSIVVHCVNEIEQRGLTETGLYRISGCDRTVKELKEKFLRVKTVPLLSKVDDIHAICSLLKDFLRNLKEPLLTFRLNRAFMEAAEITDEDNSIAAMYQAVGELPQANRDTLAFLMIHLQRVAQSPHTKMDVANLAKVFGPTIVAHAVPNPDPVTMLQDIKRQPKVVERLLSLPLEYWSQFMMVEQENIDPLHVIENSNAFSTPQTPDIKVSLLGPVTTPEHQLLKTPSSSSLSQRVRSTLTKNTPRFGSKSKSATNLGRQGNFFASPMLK

[14] = biological target: Cytochrome P450 3A4 (Homo sapiens, UniProt P08684);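 also: CYP3A4 tested as one member of a cytochrome P450 panel screen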
Sequence of Cytochrome P450 3A4 (P08684 whole entry): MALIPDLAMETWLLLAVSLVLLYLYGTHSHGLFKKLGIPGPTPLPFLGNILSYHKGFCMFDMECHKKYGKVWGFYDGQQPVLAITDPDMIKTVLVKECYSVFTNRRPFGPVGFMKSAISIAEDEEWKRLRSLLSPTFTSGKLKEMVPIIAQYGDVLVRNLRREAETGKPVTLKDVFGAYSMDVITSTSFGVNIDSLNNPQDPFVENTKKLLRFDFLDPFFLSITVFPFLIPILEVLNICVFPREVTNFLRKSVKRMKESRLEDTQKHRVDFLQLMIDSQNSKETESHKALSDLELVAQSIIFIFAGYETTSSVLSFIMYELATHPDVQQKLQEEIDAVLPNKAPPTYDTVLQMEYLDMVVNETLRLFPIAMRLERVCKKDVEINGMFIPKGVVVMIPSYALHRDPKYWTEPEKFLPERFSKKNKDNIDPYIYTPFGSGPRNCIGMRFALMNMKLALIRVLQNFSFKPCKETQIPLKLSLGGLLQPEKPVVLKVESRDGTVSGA

[15] = Luminescence Cell-Based Dose Retest to Confirm Inhibitors of Cancer Stem Cells. [Related pubchem assays (depositor defined):AID2717, AID2721]; type: functional; settings: Homo sapiens

Compound	EC50 [1]	EC50 [2]	EC50 [3]	EC50 [4]	further results
COc1ccc(C2=NN(C(C#N)c3ccc(OC)cc3)C(c3ccccc3)C2)cc1 (centres undefined)	8.15 µM (active)	5.24 µM (active)	> 120 µM (not active)	–	–
O=c1c2cccnc2n(-c2ccccc2)n1Cc1c(Cl)cccc1Cl	–	–	–	> 195 µM (not active)	–
O=C1c2ccccc2NC(c2ccccc2Cl)N1N=C1CCCCCC1 (centres undefined)	11.9 µM (active)	18.9 µM (active)	0.493 µM (active)	–	–
O=C(CNC(=O)c1ccco1)Nc1ccc2c(c1)OCCO2	–	–	–	0.274 µM (active)	–
CCOc1cc(/C=C2\SC(=S)N(Nc3ccccc3)C2=O)ccc1O	9.91 µM (active)	8.87 µM (active)	22.6 µM (active)	–	–
CC(C)(C)c1ccc(C(=O)NCCN2CCOCC2)cc1	11.8 µM (active)	12.5 µM (active)	18.3 µM (active)	–	–
COc1cc(C=O)ccc1OCCOCCOc1ccc(Cl)cc1Cl	–	–	–	–	EC50 [5]: > 53 µM (inactive); IC50 [6]: > 47.1 µM (inactive)
c1ccc(CN2CCC(Nc3nc(-c4cccnc4)nc4ccccc34)CC2)cc1	> 120 µM (not active)	13 µM (active)	104 µM (active)	–	EC50 [7]: 8.99 µM (active); EC50 [8]: 1.34 µM (active)
Cc1ccc(NC(=O)NC2=N/C(=C(/C#N)C(=O)N3CCCC3)c3ccccc32)cc1	–	–	–	> 195 µM (not active)	–
Cc1cc(C(=O)N2CCN(c3cccc(Cl)c3)CC2)c(C)o1	20.8 µM (active)	> 120 µM (not active)	> 120 µM (not active)	–	–
COc1ccccc1N1CC(C(=O)Nc2nnc(SCC(=O)N3CCCC3)s2)CC1=O (centres undefined)	–	–	–	–	EC50 [9]: > 150 µM (not active); EC50 [10]: > 150 µM (not active); EC50 [11]: > 150 µM (not active)
O=[N+]([O-])c1ccc(NCCOc2ccccc2Cl)nc1	–	–	–	> 195 µM (not active)	–
O=[N+]([O-])c1ccc(N2CCNCC2)cc1NCC1CCCO1 (centres undefined)	–	–	–	> 195 µM (not active)	AC50 [12]: 39.8 µM (inconclusive)
CCCCCCCN1N=C(C)C(C(=O)c2ccccc2)C1=O (centres undefined)	–	–	–	–	EC50 [9]: 2.89 µM (active); EC50 [10]: > 150 µM (not active); EC50 [11]: 30.9 µM (active)
CCOC(=O)N1CCN(Cc2nc3c(c(=O)n(C)c(=O)n3C)n2CCC(C)C)CC1	–	–	–	–	EC50 [5]: > 53 µM (inactive); IC50 [6]: > 47.1 µM (inactive)
COc1ccc(-c2oc3ccccc3c2C(=O)Oc2ccccc2)cc1	–	–	–	152 µM (active)	–
CN(C)c1ccc(/C=C2/C(=N\O)C3CCN2CC3)cc1	6.23 µM (active)	26 µM (active)	28.8 µM (inconclusive)	–	IC50 [13]: 75.5 µM (active)

Compound	EC50 [1]	EC50 [2]	EC50 [3]	EC50 [4]	further results
CCOC(=O)c1c(C)nc2c(C)cccn12	–	–	–	> 195 µM (not active)	–
Cc1cccn2c(=O)c(/C=N/c3ccccc3)c(NCc3ccco3)nc12	> 120 µM (not active)	> 120 µM (not active)	> 120 µM (not active)	–	–
Cc1cc(C)cc(OCC(O)CN2CCN(C(=O)c3ccco3)CC2)c1 (centres undefined)	–	–	–	> 195 µM (not active)	–
CC(Sc1nnc(NCc2ccccc2)s1)C(=O)Nc1ccc2c(c1)C(=O)c1ccccc1C2=O (centres undefined)	9.18 µM (active)	14.1 µM (active)	49.2 µM (active)	–	–
COc1ccc(S(=O)(=O)N2CCOC2CNC(=O)C(=O)NCCc2ccccc2)cc1C (centres undefined)	–	–	–	–	EC50 [5]: > 53 µM (inactive); IC50 [6]: > 47.1 µM (inactive)
CCOC(=O)c1cc(C#N)c(Oc2ccccc2OC)nc1-c1ccccc1	–	–	–	–	EC50 [5]: > 53 µM (inactive); AC50 [14]: 11.2 µM (inconclusive); IC50 [6]: > 47.1 µM (inactive)
O=C(c1ccccc1)c1ccc(OCC(O)CN2CCCC2)cc1 (centres undefined)	–	–	–	> 195 µM (not active)	–
Cc1nc2ccc(NC(=O)c3cccc(S(=O)(=O)N4CCOCC4)c3)cc2s1	–	–	–	–	EC50 [5]: > 53 µM (inactive); IC50 [6]: > 47.1 µM (inactive)
COc1ccc(OC)c2c1s/c(=N\C(=O)C1COc3ccccc3O1)n2C (centres undefined)	–	–	–	–	EC50 [5]: > 53 µM (inactive); IC50 [6]: > 47.1 µM (inactive)
Cc1c(Cl)cccc1NC(=O)c1cccc(OC(F)F)c1	–	–	–	> 195 µM (not active)	–
C=CCn1/c(=N/C(=O)C2CC2)sc2cc(NC(C)=O)ccc21	–	–	–	> 195 µM (not active)	–
O=c1c2ccccc2nnn1-c1ccc(Br)cc1	0.1 µM (active)	0.157 µM (active)	19 µM (active)	–	–
O=C(C1CCCN1S(=O)(=O)c1cccc2nsnc12)N1CCN(c2ccccc2)CC1 (centres undefined)	> 120 µM (not active)	> 120 µM (not active)	> 120 µM (not active)	–	–
COc1ccc(NC(=O)CSc2nnc3ccc(-c4ccncc4)nn23)cc1OC	–	–	–	> 195 µM (not active)	–
Cc1cc2nnc(SCC(=O)NCc3ccco3)n2c2ccccc12	5.13 µM (active)	> 120 µM (not active)	> 120 µM (not active)	–	AC50 [15]: 2.9 µM (active)
COc1ccc(C(CC(=O)Nc2ccc(F)cc2)c2ccccc2)cc1 (centres undefined)	–	–	–	–	EC50 [5]: > 53 µM (inactive); IC50 [6]: 24.3 µM (active)
